Measured values: BindingDB's records for doi:10.1021/acs.jmedchem.9b00186 (Bristol-Myers Squibb Research & Development, 2019)
pIC50: −log10 of the molar value.

Legend:
[1] = Antagonist activity at PAR4 in human platelet rich plasma assessed as inhibition of gamma-thrombin-induced platelet aggregation preincubated for 5 mins followed by gamma-thrombin addition and measured in presence of recombinant hirudin
[2] = Antagonist activity at PAR4 in human washed platelets assessed as inhibition of gamma-thrombin-induced platelet aggregation preincubated for 5 mins followed by gamma-thrombin addition and measured every 50 secs for up to 15 mins starting from 10 secs post gamma-thrombin addition in presence of recombinant hirudin

Structure (SMILES) | pIC50 [1] | pIC50 [2]
COc1cc(OCc2cccc(CCc3ccccc3)c2)c2cc(-c3cn4nc(OC)sc4n3)oc2c1 | 5.92 | 
COc1cc(OCc2cccc(Cl)c2)c2cc(-c3cn4nc(OC)sc4n3)oc2c1 | 6.17 | 
COc1cc(OCc2cccc(C#N)c2)c2cc(-c3cn4nc(OC)sc4n3)oc2c1 | 6.09 | 
CC(C)Oc1nn2cc(-c3cc4ccccc4o3)nc2s1 |  | < 4.52
COc1cc(OCc2cccc(C(F)(F)F)c2)c2cc(-c3cn4nc(OC)sc4n3)oc2c1 | 6.36 | 
CCOc1nn2cc(-c3cc4ccccc4o3)nc2s1 |  | 5.68
COc1cc(OCc2ccc(Cl)cc2)c2cc(-c3cn4nc(OC)sc4n3)oc2c1 | < 6.00 | 
COc1cc(OCc2ccccc2C(F)(F)F)c2cc(-c3cn4nc(OC)sc4n3)oc2c1 | < 6.00 | 
COc1cc(OCc2ccccc2OC)c2cc(-c3cn4nc(OC)sc4n3)oc2c1 | < 6.00 | 
CS(=O)(=O)c1nn2cc(-c3cc4ccccc4o3)nc2s1 |  | < 4.52
COc1cc(OCc2ccc(C(F)(F)F)cc2)c2cc(-c3cn4nc(OC)sc4n3)oc2c1 | 5.74 | 
COc1cc(OCc2cccc(O)c2)c2cc(-c3cn4nc(OC)sc4n3)oc2c1 | 5.57 | 
COc1cc(OCCc2ccccc2)c2cc(-c3cn4nc(OC)sc4n3)oc2c1 | 6.11 | 
COc1cc(OCCOc2ccccc2)c2cc(-c3cn4nc(OC)sc4n3)oc2c1 | 6.32 | 
COc1cc(OCCOCc2ccccc2)c2cc(-c3cn4nc(OC)sc4n3)oc2c1 | 6.30 | 
COc1nn2cc(-c3cc4ccccc4o3)nc2s1 | 4.82 | 6.62
COc1cc(OCc2cccc(CO)c2)c2cc(-c3cn4nc(OC)sc4n3)oc2c1 | < 6.00 | 
COc1cc(OCc2ccc(OCc3ccccc3)cc2)c2cc(-c3cn4nc(OC)sc4n3)oc2c1 | 6.26 | 
COc1cc(OCc2ccccc2OCc2ccccc2)c2cc(-c3cn4nc(OC)sc4n3)oc2c1 | 5.60 | 
COc1cccc(COc2cc(OC)cc3oc(-c4cn5nc(OC)sc5n4)cc23)c1 | < 6.00 | 
COc1cc(OCc2cccc(Oc3ccccc3)c2)c2cc(-c3cn4nc(OC)sc4n3)oc2c1 | 6.41 | 
COc1cc(OCc2cccc(Sc3ccccc3)c2)c2cc(-c3cn4nc(OC)sc4n3)oc2c1 | 6.39 | 
COc1cc(OCc2ccccc2C)c2cc(-c3cn4nc(OC)sc4n3)oc2c1 | 5.44 | 
COc1ccc(COc2cc(OC)cc3oc(-c4cn5nc(OC)sc5n4)cc23)cc1 | < 5.52 | 
COc1cc(OCc2ccccc2Cl)c2cc(-c3cn4nc(OC)sc4n3)oc2c1 | < 5.52 | 
COc1cc(OCc2cccc(COc3ccccc3)c2)c2cc(-c3cn4nc(OC)sc4n3)oc2c1 | 6.22 | 

Results, then the molecule that gave them:

pIC50 [1] | pIC50 [2] | Structure (SMILES)
 | < 4.52 | CNc1nn2cc(-c3cc4ccccc4o3)nc2s1 [US9862730, Example 69]
< 4.52 | < 4.52 | COc1ccc2oc(-c3cn4nc(OC)sc4n3)cc2c1 [US9862730, Example 93]
 | 6.57 | CSc1nn2cc(-c3cc4ccccc4o3)nc2s1 [US9862730, Example 1]
6.32 | 6.92 | COc1ccc2cc(-c3cn4nc(OC)sc4n3)oc2c1 [US9862730, Example 71]
5.46 | 6.62 | COc1nn2cc(-c3cc4cccc(OC)c4o3)nc2s1 [US9862730, Example 9]
5.89 | 6.46 | COc1nn2cc(-c3cc4c(OC)cccc4o3)nc2s1 [US9862730, Example 11]
5.39 | 5.51 | COc1nn2cc(-c3cc4c(OCc5ccccc5)cccc4o3)nc2s1 [US9862730, Example 210]
6.28 | 7.13 | COc1cc(OC)c2cc(-c3cn4nc(OC)sc4n3)oc2c1 [US9862730, Example 73]
5.00 | 5.68 | COc1nn2cc(-c3cc4c(OC)ccc(OC)c4o3)nc2s1 [US9862730, Example 103]
 | 5.62 | CCc1nn2cc(-c3cc4ccccc4o3)nc2s1 [US9862730, Example 47]
< 4.52 | < 4.52 | COc1nn2cc(-c3cc4ccc(OC)c(OC)c4o3)nc2s1 [US9862730, Example 10]
 | < 4.52 | c1ccc2oc(-c3cn4nc(C5CC5)sc4n3)cc2c1 [US9862730, Example 63]
< 4.52 | 5.74 | COc1nn2cc(-c3cc4ccc(OCc5ccccc5)cc4o3)nc2s1 [US9862730, Example 104]
 | < 4.52 | Cc1nn2cc(-c3cc4ccccc4o3)nc2s1 [US9862730, Example 41]
